# From patent US20150105252A1, “SUBSTITUTED PYRAZOLES AS HERBICIDES” (E I DU PONT DE NEMOURS AND COMPANY, priority 2013, published 2015)
# Columns and labels:
# canarygrass = assay: Test D postemergence; format: in vivo, Phalaris minor; conditions: scale 0 to 100
# From the text: (§1) Seeds of plant species selected from bluegrass (annual bluegrass, Poa annua), blackgrass (Alopecurus myosuroides), canarygrass (littleseed canarygrass, Phalaris minor), chickweed (common chickweed, Stellaria media), galium (catchweed bedstraw, Galium aparine), bromegrass, downy (downy bromegrass, Bromus tectorum), field poppy (Papaver rhoeas), field violet (Viola arvensis), foxtail, green (green foxtail, Setaria viridis), deadnettle (henbit deadnettle, Lamium amplexicaule), ryegrass, Italian (Italian ryegrass, Lolium multiflorum), kochia (Kochia scoparia), lambsquarters (Chenopodium album), oilseed rape (Brassica napus), pigweed (redroot pigweed, Amaranthus retroflexus), chamomile (scentless chamomile, Matricaria inodora), speedwell (bird's-eye speedwell, Veronica persica), barley, spring (spring barley, Hordeum vulgare), wheat, spring (spring wheat, Triticum aestivum), buckwheat, wild (wild buckwheat, Polygonum convolvulus), mustard, wild (wild mustard, Sinapis arvensis), oat, wild (wild oat, Avena fatua), radish, wild (wild radish, Raphanus raphanistrum), windgrass (Apera spica-venti), Russian thistle (Salsola kali), barley, winter (winter barley, Hordeum vulgare), and wheat, winter (winter wheat, Triticum aestivum) were planted into a silt loam soil and treated preemergence with test chemicals formulated in a non-phytotoxic solvent mixture which included a surfactant.
# (§2) At the same time, these species were planted in pots containing Redi-Earth® planting medium (Scotts Company, 14111 Scottslawn Road, Marysville, Ohio 43041) comprising spaghnum peat moss, vermiculite, wetting agent and starter nutrients and treated with postemergence applications of the test chemicals formulated in the same manner. Plants ranged in height from 2 to 18 cm (1- to 4-leaf stage). Treated plants and controls were maintained in a controlled growth environment for 14 to 21 days after which time all species were compared to controls and visually evaluated. Plant response ratings, summarized in Table D, are based on a scale of 0 to 100 where 0 is no effect and 100 is complete control. A dash (-) response means no test result.
# speedwell [1] = assay: Test D preemergence; format: in vivo, Veronica persica; conditions: scale 0 to 100
# From the text: as §1, §2
# chickweed = assay: Test D postemergence; format: in vivo, Stellaria media; conditions: scale 0 to 100
# From the text: as §1, §2
# speedwell [2] = assay: Test D postemergence; format: in vivo, Veronica persica; conditions: scale 0 to 100
# From the text: as §1, §2
# bromegrass, downy = assay: Test D postemergence; format: in vivo, Bromus tectorum; conditions: scale 0 to 100
# From the text: as §1, §2
# kochia [3] = assay: Test D preemergence; format: in vivo, Kochia scoparia; conditions: scale 0 to 100
# From the text: as §1, §2
# johnsongrass = assay: Test F preemergence; format: in vivo, Sorghum halepense
# From the text: (§3) Seeds of plant species selected from corn (Zea mays), soybean (Glycine max), velvetleaf (Abutilon theophrasti), lambsquarters (Chenopodium album), wild poinsettia (Euphorbia heterophylla), pigweed, palmer (palmer pigweed, Amaranthus palmeri), common waterhemp (Amaranthus rudis), surinam grass (Brachiaria decumbens), large crabgrass (Digitaria sanguinalis), crabgrass, Brazil (Brazilian crabgrass, Digitaria horizontalis), fall panicum (Panicum dichotomiflorum), giant foxtail (Setaria faberii), green foxtail (Setaria viridis), goosegrass (Eleusine indica), johnsongrass (Sorghum halepense), common ragweed (Ambrosia elation), barnyardgrass (Echinochloa crus-galli), southern sandbur (Cenchrus echinatus), arrowleaf sida (Sida rhombifolia), Italian ryegrass (Lolium multiflorum), dayflower, VA (Virginia (VA) dayflower, Commelina virginica), field bindweed (Convolvulus arvensis), cocklebur (common cocklebur, Xanthium strumarium), morningglory (Ipomoea coccinea), nightshade (eastern black nightshade, Solanum ptycanthum), kochia (Kochia scoparia), yellow nutsedge (Cyperus esculentus), and hairy beggarticks (Bidens pilosa), were planted into a silt loam soil and treated preemergence with test chemicals formulated in a non-phytotoxic solvent mixture which included a surfactant.
# (§4) At the same time, plants from these crop and weed species and also horseweed (Canada horseweed, Conyza canadensis), smartweed (ladysthumb smartweed, Polygonum persicaria), waterhemp_RES1, (ALS & Triazine resistant common waterhemp, Amaranthus rudis), and waterhemp_RES2, (ALS & HPPD resistant common waterhemp, Amaranthus rudis) were treated with postemergence applications of test chemicals formulated in the same manner. Plants ranged in height from 2 to 18 cm for postemergence treatments (1- to 4-leaf stage). Treated plants and controls were maintained in a greenhouse for 14 to 21 days, after which time all species were compared to controls and visually evaluated. Plant response ratings, summarized in Table F, are based on a scale of 0 to 100 where 0 is no effect and 100 is complete control. A dash (-) response means no test result.
# hairy beggarticks = assay: Test F preemergence; format: in vivo, Bidens pilosa
# From the text: as §3, §4
# soybean = assay: Test F preemergence; format: in vivo, Glycine max
# From the text: as §3, §4
# morningglory = assay: Test F preemergence; format: in vivo, Ipomoea coccinea
# From the text: as §3, §4
# giant foxtail = assay: Test F preemergence; format: in vivo, Setaria faberii
# Method in brief: (§5)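 Plant response is scored by eye relative to controls on a 0 to 100 scale, where 100 means complete control. Preemergence applications were made to seeded silt loam; postemergence ones to seedlings 2 to 18 cm high. Greenhouse holding time was 14 to 21 days.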
# lambsquarters = assay: Test F preemergence; format: in vivo, Chenopodium album
# From the text: as §3, §4
# dayflower, VA = assay: Test F preemergence; format: in vivo, Commelina virginica
# Method in brief: as §5
# kochia [4] = assay: Test F preemergence; format: in vivo, Kochia scoparia
# Method in brief: as §5
# [5] = Preemergence, 250 g ai/ha, scale 0 to 100
# [6] = Preemergence, 62 g ai/ha, scale 0 to 100
# [7] = Preemergence, 125 g ai/ha, scale 0 to 100
# [8] = preemergence, 16 g ai/ha, scale 0 to 100, 100 is complete control
# [9] = Preemergence, 16 g ai/ha, scale 0 to 100
smiles,measurement,setting,value
CCc1cc(C(=O)NC(C)C)nn1Cc1ccnc(C(F)(F)F)c1 [Compound 103],Canarygrass plant response rating,"canarygrass; Postemergence, 31 g ai/ha",5
same,Canarygrass plant response rating,"canarygrass; Postemergence, 125 g ai/ha",10
same,Canarygrass plant response rating,"canarygrass; Postemergence, 250 g ai/ha",10
same,Canarygrass plant response rating,"canarygrass; postemergence, 62 g ai/ha",5
same,"Plant response rating, Speedwell",speedwell [1]; 31 g ai/ha,70
same,"Plant response rating, Speedwell",speedwell [1]; 62 g ai/ha,100
same,"Plant response rating, Speedwell",speedwell [1]; 125 g ai/ha,100
same,"Plant response rating, Speedwell",speedwell [1]; 250 g ai/ha,100
same,Chickweed plant response rating,"chickweed; Postemergence, 31 g ai/ha",20
same,Chickweed plant response rating,"chickweed; Postemergence, 125 g ai/ha",40
same,Chickweed plant response rating,"chickweed; Postemergence, 250 g ai/ha",70
same,Chickweed plant response rating,"chickweed; postemergence, 62 g ai/ha",25
same,Speedwell plant response rating,"speedwell [2]; Postemergence, 31 g ai/ha",35
same,Speedwell plant response rating,"speedwell [2]; Postemergence, 125 g ai/ha",55
same,Speedwell plant response rating,"speedwell [2]; Postemergence, 250 g ai/ha",70
same,Speedwell plant response rating,"speedwell [2]; postemergence, 62 g ai/ha",45
same,"Bromegrass, Downy plant response rating","bromegrass, downy; Postemergence, 31 g ai/ha",5
same,"Bromegrass, Downy plant response rating","bromegrass, downy; Postemergence, 125 g ai/ha",15
same,"Bromegrass, Downy plant response rating","bromegrass, downy; Postemergence, 250 g ai/ha",15
same,"Bromegrass, Downy plant response rating","bromegrass, downy; postemergence, 62 g ai/ha",10
same,"Plant response rating, Kochia",kochia [3]; 31 g ai/ha,10
same,"Plant response rating, Kochia",kochia [3]; 62 g ai/ha,65
same,"Plant response rating, Kochia",kochia [3]; 125 g ai/ha,85
same,"Plant response rating, Kochia",kochia [3]; 250 g ai/ha,100
CCCc1cc(C(=O)NCC(F)(F)F)nn1Cc1cc(C(F)(F)F)nn1C [Compound 138],Canarygrass plant response rating,"canarygrass; Postemergence, 31 g ai/ha",5
same,Canarygrass plant response rating,"canarygrass; Postemergence, 125 g ai/ha",25
same,Canarygrass plant response rating,"canarygrass; Postemergence, 250 g ai/ha",70
same,Canarygrass plant response rating,"canarygrass; postemergence, 62 g ai/ha",5
same,"Plant response rating, Speedwell",speedwell [1]; 62 g ai/ha,100
same,"Plant response rating, Speedwell",speedwell [1]; 125 g ai/ha,100
same,"Plant response rating, Speedwell",speedwell [1]; 250 g ai/ha,100
same,Chickweed plant response rating,"chickweed; Postemergence, 31 g ai/ha",70
same,Chickweed plant response rating,"chickweed; Postemergence, 125 g ai/ha",80
same,Chickweed plant response rating,"chickweed; Postemergence, 250 g ai/ha",75
same,Chickweed plant response rating,"chickweed; postemergence, 62 g ai/ha",70
same,Speedwell plant response rating,"speedwell [2]; Postemergence, 31 g ai/ha",100
same,Speedwell plant response rating,"speedwell [2]; Postemergence, 125 g ai/ha",100
same,Speedwell plant response rating,"speedwell [2]; Postemergence, 250 g ai/ha",100
same,Speedwell plant response rating,"speedwell [2]; postemergence, 62 g ai/ha",100
same,"Bromegrass, Downy plant response rating","bromegrass, downy; Postemergence, 31 g ai/ha",10
same,"Bromegrass, Downy plant response rating","bromegrass, downy; Postemergence, 125 g ai/ha",30
same,"Bromegrass, Downy plant response rating","bromegrass, downy; Postemergence, 250 g ai/ha",20
same,"Bromegrass, Downy plant response rating","bromegrass, downy; postemergence, 62 g ai/ha",10
same,"Plant response rating, Kochia",kochia [3]; 62 g ai/ha,95
same,"Plant response rating, Kochia",kochia [3]; 125 g ai/ha,100
same,"Plant response rating, Kochia",kochia [3]; 250 g ai/ha,100
CCOc1cc(C(=O)NC2CC2)nn1Cc1ccnc(C(F)(F)F)c1 [Compound 189],Canarygrass plant response rating,"canarygrass; Postemergence, 31 g ai/ha",15
same,Canarygrass plant response rating,"canarygrass; Postemergence, 125 g ai/ha",20
same,Canarygrass plant response rating,"canarygrass; Postemergence, 250 g ai/ha",30
same,Canarygrass plant response rating,"canarygrass; postemergence, 62 g ai/ha",15
same,"Plant response rating, Speedwell",speedwell [1]; 62 g ai/ha,100
same,"Plant response rating, Speedwell",speedwell [1]; 125 g ai/ha,100
same,"Plant response rating, Speedwell",speedwell [1]; 250 g ai/ha,100
same,Chickweed plant response rating,"chickweed; Postemergence, 31 g ai/ha",75
same,Chickweed plant response rating,"chickweed; Postemergence, 125 g ai/ha",70
same,Chickweed plant response rating,"chickweed; Postemergence, 250 g ai/ha",85
same,Chickweed plant response rating,"chickweed; postemergence, 62 g ai/ha",75
same,Speedwell plant response rating,"speedwell [2]; Postemergence, 31 g ai/ha",70
same,Speedwell plant response rating,"speedwell [2]; Postemergence, 125 g ai/ha",85
same,Speedwell plant response rating,"speedwell [2]; Postemergence, 250 g ai/ha",90
same,Speedwell plant response rating,"speedwell [2]; postemergence, 62 g ai/ha",70
same,"Bromegrass, Downy plant response rating","bromegrass, downy; Postemergence, 31 g ai/ha",15
same,"Bromegrass, Downy plant response rating","bromegrass, downy; Postemergence, 125 g ai/ha",15
same,"Bromegrass, Downy plant response rating","bromegrass, downy; Postemergence, 250 g ai/ha",20
same,"Bromegrass, Downy plant response rating","bromegrass, downy; postemergence, 62 g ai/ha",15
same,"Plant response rating, Kochia",kochia [3]; 62 g ai/ha,100
same,"Plant response rating, Kochia",kochia [3]; 125 g ai/ha,100
same,"Plant response rating, Kochia",kochia [3]; 250 g ai/ha,100
CCc1cc(C(=O)NC2CC2)nn1Cc1ccnc(OCC(F)(F)F)c1 [Compound 200],"Plant response rating, Johnsongrass",johnsongrass; [5],75
same,"Plant response rating, Johnsongrass",johnsongrass; [6],20
same,"Plant response rating, Johnsongrass",johnsongrass; [7],70
same,"Plant response rating, Johnsongrass",johnsongrass; [8],0
same,"Plant response rating, Hairy Beggarticks",hairy beggarticks; [5],40
same,"Plant response rating, Hairy Beggarticks",hairy beggarticks; [6],0
same,"Plant response rating, Hairy Beggarticks",hairy beggarticks; [7],0
same,"Plant response rating, Hairy Beggarticks",hairy beggarticks; [8],0
same,"Plant response rating, Soybean",soybean; [5],75
same,"Plant response rating, Soybean",soybean; [9],0
same,"Plant response rating, Soybean",soybean; [6],0
same,"Plant response rating, Soybean",soybean; [7],65
same,"Plant response rating, Soybean",soybean; [8],0
same,"Plant response rating, Morningglory",morningglory; [5],75
same,"Plant response rating, Morningglory",morningglory; [9],0
same,"Plant response rating, Morningglory",morningglory; [6],10
same,"Plant response rating, Morningglory",morningglory; [7],60
same,"Plant response rating, Morningglory",morningglory; [8],0
same,"Plant response rating, Giant Foxtail",giant foxtail; [5],40
same,"Plant response rating, Giant Foxtail",giant foxtail; [6],0
same,"Plant response rating, Giant Foxtail",giant foxtail; [7],5
same,"Plant response rating, Giant Foxtail",giant foxtail; [8],0
same,"Plant response rating, Lambsquarters",lambsquarters; [5],98
same,"Plant response rating, Lambsquarters",lambsquarters; [6],65
same,"Plant response rating, Lambsquarters",lambsquarters; [7],70
same,"Plant response rating, Lambsquarters",lambsquarters; [8],0
same,"Plant response rating, Dayflower, VA","dayflower, VA; [5]",60
same,"Plant response rating, Dayflower, VA","dayflower, VA; [6]",0
same,"Plant response rating, Dayflower, VA","dayflower, VA; [7]",10
same,"Plant response rating, Dayflower, VA","dayflower, VA; [8]",0
same,"Plant response rating, Kochia",kochia [4]; [5],100
same,"Plant response rating, Kochia",kochia [4]; [6],70
same,"Plant response rating, Kochia",kochia [4]; [7],90
same,"Plant response rating, Kochia",kochia [4]; [8],20
